≈ marks a conversion by molar mass, not a printed value. Calls of active or inactive are those of the source. The calls are words filed in the database; no cut-off is given here.

We go through 13 compounds from ChEMBL document CHEMBL3244240, “Antitubercular 2,8-bis(alkylaminomethyl)phenazines” (1978).

Assay [1] concerns Mycolicibacterium smegmatis. The assay can be described thus: Antitubercular against Mycobacterium smegmatis ATCC 607 by agar dilution method. Format: functional.
The test system of assay [2] is Mycobacterium tuberculosis. As to the kind of experiment: Antitubercular against Mycobacterium tuberculosis H37Rv infected in mouse assessed as host survival at 19 mg/kg/day administered with food for 19 days measured on day 30. Format: functional, organism-based.
In assay [3] the test system is Mycobacterium tuberculosis. As to the kind of experiment: Antitubercular against Mycobacterium tuberculosis H37Rv infected in mouse assessed as host survival at 75 mg/kg/day administered with food for 19 days measured on day 30. Format: functional, organism-based.
For assay [4], the system named is Mycobacterium tuberculosis. As to the kind of experiment: Antitubercular against Mycobacterium tuberculosis H37Rv infected in mouse assessed as host survival at 5 mg/kg/day administered with food for 19 days measured on day 30. Format: functional, organism-based.
In assay [5] the test system is Mycobacterium tuberculosis. The assay can be described thus: Antitubercular against Mycobacterium tuberculosis H37Rv infected in mouse assessed as host survival at 2.5 mg/kg/day administered with food for 19 days measured on day 30. Format: functional, organism-based.
For assay [6], the system named is Mycobacterium tuberculosis. The assay can be described thus: Antitubercular against Mycobacterium tuberculosis H37Rv infected in mouse assessed as host survival at 9 mg/kg/day administered with food for 19 days measured on day 30. Format: functional, organism-based.

One may read the MIC as the least concentration at which growth counts as inhibited. Consider `Cl.c1ccc(CN2CCN(Cc3ccc4nc5ccc(CN6CCN(Cc7ccccc7)CC6)cc5nc4c3)CC2)cc1`, for which the MIC in assay [1] was determined as 10 µg/mL. Same read-out and setting: to `CCCCCN(CCCCC)Cc1ccc2nc3ccc(CN(CCCCC)CCCCC)cc3nc2c1` belongs 62 µg/mL (≈ 119 µM); to `CCCCCCCN(CCCCCCC)Cc1ccc2nc3ccc(CN(CCCCCCC)CCCCCCC)cc3nc2c1`, 62 µg/mL (≈ 98.2 µM); to `CCCCCCN(CCCCCC)Cc1ccc2nc3ccc(CN(CCCCCC)CCCCCC)cc3nc2c1`, 62 µg/mL (≈ 108 µM). Same read-out and setting: for `CCCCCCCCN(CCCCCCCC)Cc1ccc2nc3ccc(CN(CCCCCCCC)CCCCCCCC)cc3nc2c1` the value was 62 µg/mL (≈ 90.2 µM); for `CC1CN(Cc2ccc3nc4ccc(CN5CC(C)NC(C)C5)cc4nc3c2)CC(C)N1.Cl` (stereo not drawn), 62 µg/mL; for `c1cc2nc3ccc(CN4CCCCC4)cc3nc2cc1CN1CCCCC1`, 62 µg/mL (≈ 166 µM). For `CCCCN(CCCC)Cc1ccc2nc3ccc(CN(CCCC)CCCC)cc3nc2c1.Cl`, the outcome in assay [2] and in assay [4] was inactive. In addition, the outcome in assay [3] was Active. In addition, the MIC in assay [1] was 2.5 µg/mL.

In turn, `CCN(CC)Cc1ccc2nc3ccc(CN(CC)CC)cc3nc2c1.Cl` gave a minimum inhibitory concentration (MIC) in assay [1] of 5 µg/mL. Still for that read-out and setting: for `CN1CCN(Cc2ccc3nc4ccc(CN5CCN(C)CC5)cc4nc3c2)CC1` the value was 62 µg/mL (≈ 153 µM). With `NNC(=O)c1ccncc1` [ISONIAZID], the result in assay [5] was inactive. Further, the result in assay [6] was Active. The compound further yielded an MIC in assay [1] of 0.05 µg/mL (≈ 0.365 µM).

In turn, `Cl.c1ccc(N2CCN(Cc3ccc4nc5ccc(CN6CCN(c7ccccn7)CC6)cc5nc4c3)CC2)nc1` gave a minimum inhibitory concentration (MIC) in assay [1] of 125 µg/mL. Still for that read-out and setting: to `CC[C@@H](CO)NCCN[C@@H](CC)CO` [ETHAMBUTOL] belongs 0.5 µg/mL (≈ 2.45 µM).
